The term IC50 denotes the concentration needed to halve the response being measured. What is called Ki is a measure of affinity in units of concentration, obtained from inhibition or displacement. The low end stands for higher affinity, the high end for lower affinity. Usually inhibition stands for the drop in the measured response relative to a control, in per cent.

The structures appear in SMILES notation.

The record followed here is patent US7776882B2, “2-amino-3,4-dihydro-quinoline derivatives useful as inhibitors of β-secretase (BACE)” (priority 2006, dated 2010).

What all share (assay type): biochemical
The target of experiment [1] is T1, β-secretase (BACE) (Homo sapiens, UniProt P56817).
T1 construct: purchased Panvera
T1 sequence (P56817 46-501): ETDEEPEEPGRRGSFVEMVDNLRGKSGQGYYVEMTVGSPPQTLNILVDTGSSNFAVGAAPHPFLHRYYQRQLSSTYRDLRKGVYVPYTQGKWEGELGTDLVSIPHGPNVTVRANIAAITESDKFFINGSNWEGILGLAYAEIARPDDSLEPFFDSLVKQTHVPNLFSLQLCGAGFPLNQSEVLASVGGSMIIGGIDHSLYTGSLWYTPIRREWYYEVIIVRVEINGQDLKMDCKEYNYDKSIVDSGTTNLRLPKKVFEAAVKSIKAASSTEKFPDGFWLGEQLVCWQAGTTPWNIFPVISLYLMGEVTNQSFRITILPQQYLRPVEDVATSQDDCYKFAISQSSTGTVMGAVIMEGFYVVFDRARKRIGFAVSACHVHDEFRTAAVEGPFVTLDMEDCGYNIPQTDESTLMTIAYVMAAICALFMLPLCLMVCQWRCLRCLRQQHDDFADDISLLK
Kind of experiment: In Vitro BACE IC50 Assay, MCA-substrate (Example 13). Particulars: 1 hour at room temperature. From the text: The following standards are reagents were used in this assay: Sodium Citrate trisodium salt dihydrate (Sigma), Citric Acid monohydrate (Merck), PEG8000 (Sigma), MCA-substrate (Bachem), β-secretase (BACE) (Panvera), 96-well black plate (Costar (Elscolab)), StatVal (Bachem). The standard assay buffer solution prepared and used in this assay is as follows: 0.05 M, pH 5.0 mixture of sodium citrate trisodium salt dihydrate (9.56 g), citric acid monohydrate (3.68 g) and PEG8000 (0.50 g). The MCA-substrate stock solution was prepared by mixing 10 mg MCA-substrate with 5 mL DMSO for a final solution concentration of 2.0 mg/mL. […]
Briefly, the procedure for this BACE IC50 assay was as follows. […] Each well was mixed for a few seconds and the T0 measured with a Fluoroscan Ex320/Em405. The plates were then incubated for 1 hour at room temperature and the T60 measured with the Fluoroscan Ex 320 nm/Em 405 nm.
The procedure for the blank (reference well) was as follows. […] The T0 was measured with the Fluoroscan Ex 320 nm/Em 405 nm, the plate was incubated for 1 hour at room temperature and the T60 was then measured with the Fluoroscan Ex 320 nm/Em 405 nm.
The procedure for the positive control was as follows. […] The T0 was measured with the Fluoroscan Ex 320 nm/Em 405 nm, the plate was incubated for 1 hour at room temperature and the T60 was then measured with the Fluoroscan Ex 320 nm/Em 405 nm. […]

In experiment [2] the target is T1, β-secretase (BACE). Briefly: In Vitro BACE % Inhibition Assay, (Aedens)-[…]-(Dabcyl K-amide) substrate (Example 12). To be noted: for % Inhibition 3 μM: 3 μM compound; for % Inhibition 3 μM / % Inhibition 10 μM: values below about 25% (including negative) within noise; for % Inhibition 10 μM: 10 μM compound. As to the method: The following reagents were used in this assay: sodium acetate, PEG8000 (Sigma), DMSO, HEPES, (Aedens)-[…]-(Dabcyl K-amide) substrate, β-secretase (BACE) (Panvera), and 96-well plate (HE microplate, Molecular Devices).
(§1) The following assay buffers were prepared and used in this assay: (1) enzyme assay buffer (0.05 M sodium acetate, pH5, 0.1% PEG8000 (w/v)), (2) substrate assay buffer (0.05 M sodium acetate, pH5), and (3) compound vehicle (30% DMSO in 50 mM HEPES, pH 7.4).
The substrate stock solution was prepared in DMSO as a 10 mg/mL solution. The substrate working solution was prepared by diluting the 10 mg/mL stock solution with substrate assay buffer to a final concentration of 300 μg/mL. The β-secretase (BACE) working solution was prepared by diluting a 0.83 mg/mL BACE stock solution with enzyme assay buffer to a final concentration of 4 μg/mL.
(§2) Test compounds were dissolved in DMSO to 10 mM. Compounds were further diluted in vehicle to various concentrations in the range of 405 μM to 4.05 μM (13.5×final compound concentration in screening plate).
The screening procedure for this assay was as follows: 15 μL of BACE working solution was pipetted into each well of a 96-well plate. To each well was then pipetted 2 μL of test compound at the selected concentration. Test compound and BACE were then mixed with a pipettor and incubated for 20 min at room temperature. To each well was then added 10 μL of the substrate working solution. The plates were then incubated for 1 hour at room temperature. The fluorescence for each well was then measured on an LJL analyst (Ex 360 nm/Em 530 nm).
The procedure for the blank (negative control) was as follows. 15 μL of assay buffer was pipetted into each well to be used as a blank control. To each well was then added 2 μL of vehicle and 10 μL of substrate working solution. The plates were then incubated for 1 hour at room temperature. The fluorescence was measured on an LJL analyst (Ex 360 nm/Em 530 nm).
The procedure for the positive control was as follows: 15 μl of BACE working solution was pipetted into each well to be used as a positive control. To each well was then pipetted 2 μL of vehicle. Vehicle and BACE were then mixed with a pipettor and incubated for 20 min at room temperature. To each well was then added 10 μL of the substrate working solution. The plates were then incubated for 1 hour at room temperature. The fluorescence (Fl) was then measured on an LJL analyst (Ex 360 nm/Em 530 nm).
For test compounds, % inhibition was determined at each concentration as follows:
% Inhibition values of less than 30% were indistinguishable from control and are listed as ≦30% in the Table below.

Experiment [3] concerns the target T1, β-secretase (BACE). Kind of experiment: In Vitro BACE Assay, Ki (Example 11). To be noted: Ki (μM) (Example 11), FS1 substrate 50 μM, Km 24 μM. On the procedure:
The following reagents were used in this assay: sodium acetate, PEG8000 (Sigma), DMSO, HEPES, FS1 substrate [R(AedensE)[…]-(DabcylK)R], β-secretase (BACE) (Panvera), and 96-well plate (HE microplate, Molecular Devices).
as §1
(§3) The FS1-substrate stock solution was prepared in DMSO as a 10 mg/mL solution. The FS1-substrate working solution was prepared by diluting the 10 mg/mL stock solution with substrate assay buffer to a final concentration of 300 μg/mL. The β-secretase (BACE) working solution was prepared by diluting a 0.83 mg/mL BACE stock solution with enzyme assay buffer to a final concentration of 4 μg/mL.
Test compounds were dissolved in DMSO at 10 mM.
The procedure for this assay was as follows: 15 μL of BACE working solution was pipetted into each well of a 96-well plate. To each well was then pipetted 2 μL of test compound at the selected concentration. Test compound and BACE were then mixed with a pipettor and incubated for 20 min at room temperature. To each well was then added 10 μL of the FS1 substrate working solution. The fluorescence for each well was then measured on a Polarstar fluorometer (Ex 390 nm/Em 520 nm) for 20 min at room temperature, reading fluorescence at 1 min intervals.
The procedure for the positive control was as follows: 15 μL of BACE working solution was pipetted into each well to be used as a positive control. To each well was then pipetted 2 μL of vehicle. Vehicle and BACE were then mixed with a pipettor and incubated for 20 min at room temperature. To each well was then added 10 μL of the FS1 substrate working solution. The fluorescence was then measured on a Polarstar fluorometer (Ex 390 nm/Em 520 nm) for 20 min at room temperature, reading fluorescence at 1 min intervals.
For test compounds, Ki inhibition was determined as follows: For each compound concentration and positive control, rate of cleavage of substrate (Vi, where i=compound concentration in μM) was determined as Δ Fluorescence/Δ time (min). Cleavage rates (Vi) were plotted as a function of inhibitor concentration in μM [I]. The Ki was then determined by fitting the following equation to the graph of [I] vs Vi Y=aVmax/(50+24*(1+X/Ki)),

For another experiment, the target named is T2, human BACE-1 (Homo sapiens, UniProt P56817).
T2 construct: purchased CEREP (contract assay) 761-B
T2 sequence (P56817 46-501): as above
Kind of experiment: In Vitro BACE Assay run by CEREP (Example 14). To be noted: recombinant enzyme, 60 min at 37° C., pH 4.5. As to the method:
This assay was run by CEREP (Catalog Ref. 761-B, Referred to SOP No. 1C131; ERMOLIEFF, J., LOY, J. A., KOELSCH, G. and TANG, J., Proteolytic activation of recombinant pro-memapsin 2 (pro-BACE) studied with new fluorogenic substrates, Biochemistry, (2000) Vol. 39, p. 12450).
More specifically the assay, run at 50 μL in a 96 well plate, evaluated the effect of test compound on the activity of the human BACE-1 quantified by measuring the formation of Mca-S-E-V-N-L-NH2 from Mca-S-E-V-N-L-D-A-E-F-R-K(Dnp)-R-R-NH2, using a recombinant enzyme.
The test compound, reference compound or water (control) was added to a buffer containing 0.09 M sodium acetate (pH 4.5) and 0.25 μg BACE-1. Compound interference with the fluorimetric detection method due to autofluorescence was then checked by measurements at the wavelengths defined to evaluate the enzyme activity. Thereafter, the reaction was initiated by adding 7.5 μM of the substrate Mca-S-E-V-N-L-D-A-E-F-R-K(Dnp)-R-R-NH2 and the mixture was incubated for 60 min at 37° C. For control basal measurement, the substrate was omitted from the reaction mixture. Immediately after the incubation, the fluorescence intensity emitted by the reaction product Mca-S-E-V-N-L-NH2 was measured at λex=320 nm and λem=405 nm using a microplate reader (Ultra, Tecan). The standard inhibitory reference compound was OM99-2, which was tested in each experiment at several concentrations to obtain an inhibition curve from which its IC50 value was calculated.

Experiment [4] has as its target T1, β-secretase (BACE). Briefly: In Vitro BACE FS1 % Inhibition Assay (Example 10). To be noted: FS1 substrate, values below about 25% (including negative) within noise. On the procedure:
as §1, §3, §2
The screening procedure for this assay was as follows: 15 μL of BACE working solution was pipetted into each well of a 96-well plate. To each well was then pipetted 2 μL of test compound at the selected concentration. Test compound and BACE were then mixed with a pipettor and incubated for 20 min at room temperature. To each well was then added 10 μL of the FS1 substrate working solution. The plates were then incubated for 1 hour at room temperature. The fluorescence for each well was then measured on an LJL analyst (Ex 360 nm/Em 530 nm).
The procedure for the blank (negative control) was as follows. 15 μL of assay buffer was pipetted into each well to be used as a blank control. To each well was then added 2 μL of vehicle and 10 μL of FS1-substrate working solution. The plates were then incubated for 1 hour at room temperature. The fluorescence was measured on an LJL analyst (Ex 360 nm/Em 530 nm).
The procedure for the positive control was as follows: 15 μL of BACE working solution was pipetted into each well to be used as a positive control. To each well was then pipetted 2 μL of vehicle. Vehicle and BACE were then mixed with a pipettor and incubated for 20 min at room temperature. To each well was then added 10 μL of the FS1 substrate working solution. The plates were then incubated for 1 hour at room temperature. The fluorescence (Fl) was then measured on an LJL analyst (Ex 360 nm/Em 530 nm).
For test compounds, % inhibition was determined at each concentration as follows: […]

`CN(C(=O)CC[C@@H]1Cc2cc(Oc3ccccc3)ccc2N=C1N)C1CCCCC1` [compound 103] showed an IC50 at β-secretase (BACE) [1] of 220 nM.
`CN(C(=O)CCc1cc2cc(Oc3ccccc3)ccc2nc1N)C1CCCCC1` [compound 1]: at β-secretase (BACE) [2], the “% Inhibition 3 μM” value is on record as −8.5% and the “% Inhibition 10 μM” value is on record as 9%.
As to `CN(C(=O)CCC(c1cc2cc(Oc3ccccc3)ccc2nc1N)C1CCCCC1)C1CCCCC1` (centres unmarked) [compound 16], the Ki at β-secretase (BACE) [3] amounted to 0.44 µM. Further, the inhibition at 0.3 µM at human BACE-1 (0.3 μM compound) was 15%; on β-secretase (BACE) [4] (0.3 μM compound) it was 29%. Also, the inhibition at 1 µM at human BACE-1 (1 μM compound) is 46%; against β-secretase (BACE) [4] (1 μM compound), 27%. At human BACE-1, the IC50 came out at 700 nM. Further, the inhibition at 3 µM at β-secretase (BACE) [4] (3 μM compound) stood at 78%.
Regarding `CC(C)(C)OC(=O)CCc1cc2cc(Oc3ccccc3)ccc2nc1N` [compound 501], at β-secretase (BACE) [2], the “% Inhibition 3 μM” value is given as 12% and the “% Inhibition 10 μM” value is −36%.
Regarding `CN(C(=O)CCC1Cc2cc(Oc3ccccc3)ccc2N=C1N)C1CCCCC1` (centres unmarked) [compound 101], the results for the Ki on β-secretase (BACE) [3] and at β-secretase (BACE) [2] were 0.1 µM and 280 nM, respectively.
`CN(C(=O)CC[C@H]1Cc2cc(Oc3ccccc3)ccc2N=C1N)C1CCCCC1` [compound 102] yielded an IC50 against β-secretase (BACE) [1] of 170 nM.
As to `Nc1nc2ccc(Oc3ccccc3)cc2cc1CCC(=O)O` [compound 502], on β-secretase (BACE) [2], the “% Inhibition 3 μM” value is −8% and the “% Inhibition 10 μM” value is on record as −16%.
